We go through eight molecules from ChEMBL document CHEMBL1201862, “PubChem BioAssay data set” (2004).

Among the test systems are SF-268; LOX IMVI; UACC-257; COLO 205; EKVX; SK-OV-3; NCI-H23; SF-295; IGROV-1; UACC-62; SN12C; CAKI-1; SNB-75; U-251; SNB-19; MOLT-4; OVCAR-3; OVCAR-8; A498; HCC 2998.
Common to all, as to assay: NCI tumour cell line growth inhibition, 48 h

Molecules are shown by their SMILES.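 Cultured in 96-well plates, cells were exposed to test compound for 48 hours across five concentrations. Here, GI50 denotes the concentration required for 50% inhibition of growth.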 Activity calls are given as the source filed them. Rule as the data show it: active = GI50 up to about 1.1 µM and inactive = higher. A value given as a limit tells only on which side of the number the result lay.

As for `Nc1nc(SCCc2ccccc2)nc2nc3c(c(-c4ccccc4)c12)CCCC3`, the GI50 in the assay on SF-268 was > 100 µM (inactive); in the assay with LOX IMVI, > 100 µM (inactive); in the assay on UACC-257 it was > 100 µM (inactive); in the assay on COLO 205, > 100 µM (inactive); in the assay on EKVX, > 100 µM (inactive); with SK-OV-3 it was 99.1 µM (inactive). Also, the GI50 in the assay on NCI-H23, in the assay with SF-295, in the assay with IGROV-1, in the assay on UACC-62, in the assay with SN12C and in the assay with CAKI-1 was > 100 µM (inactive) throughout. In addition, the GI50 with SNB-75 was 34.9 µM (inactive); in the assay on U-251, > 100 µM (inactive); in the assay on SNB-19 it was > 100 µM (inactive); in the assay with MOLT-4 it was > 100 µM (inactive); in the assay with OVCAR-3 it was > 100 µM (inactive); with OVCAR-8 it was > 100 µM (inactive).
In the case of `Cc1[nH]c(-c2ccccc2)c(O)c1C(=O)OC1CC(C)CCC1C(C)C` (stereo not drawn), the GI50 in the assay with SF-268 is 15.3 µM (inactive); in the assay with UACC-257, 15.7 µM (inactive); in the assay with COLO 205 it was 14.8 µM (inactive); in the assay with EKVX, 11.7 µM (inactive); in the assay with SK-OV-3, 15.3 µM (inactive); in the assay on NCI-H23, 13.4 µM (inactive). The GI50 was 12.4 µM (inactive) with SF-295; 15.6 µM (inactive) in the assay on IGROV-1; 16.5 µM (inactive) in the assay with UACC-62; 15.7 µM (inactive) with SN12C; 17.7 µM (inactive) in the assay with CAKI-1; 17.9 µM (inactive) in the assay with SNB-75. Further, the GI50 with U-251 was 15.5 µM (inactive); with SNB-19 it was 17.3 µM (inactive); with MOLT-4, 11.1 µM (inactive); in the assay with A498, 18.6 µM (inactive); with OVCAR-3, 12.7 µM (inactive); with OVCAR-8, 16 µM (inactive).
Take `C[C@@H](O)C(=O)N1[C@@H]2CC3CC[C@]2(CS1(=O)=O)C3(C)C`: the GI50 in the assay with LOX IMVI is > 100 µM (inactive); in the assay on UACC-257 it was > 100 µM (inactive); in the assay on COLO 205, 79.3 µM (inactive); in the assay on EKVX, 89.7 µM (inactive); in the assay on SK-OV-3, > 100 µM (inactive); with NCI-H23, 62.2 µM (inactive). The GI50 was 49.1 µM (inactive) in the assay on HCC 2998; > 100 µM (inactive) with SF-295; > 100 µM (inactive) in the assay on IGROV-1; > 100 µM (inactive) in the assay with UACC-62; 55.5 µM (inactive) in the assay with SN12C; > 100 µM (inactive) with CAKI-1. The GI50 was > 100 µM (inactive) in the assay with SNB-75; 52.1 µM (inactive) with U-251; 65.8 µM (inactive) in the assay on SNB-19; 31.1 µM (inactive) in the assay on MOLT-4; > 100 µM (inactive) in the assay on OVCAR-3; > 100 µM (inactive) with OVCAR-8.
Consider `C/C(=C\c1ccccc1)n1c(=O)cc(C)n1C`, for which the GI50 in the assay on SF-268, in the assay on LOX IMVI, in the assay on UACC-257, with COLO 205, in the assay with EKVX and in the assay with SK-OV-3 was > 100 µM (inactive) throughout. In addition, the GI50 in the assay on NCI-H23, in the assay on HCC 2998, in the assay with SF-295, in the assay on IGROV-1, with UACC-62 and in the assay on SN12C was > 100 µM (inactive) in each case. Moreover, the GI50 with CAKI-1 was > 100 µM (inactive); in the assay on SNB-75, > 100 µM (inactive); in the assay on U-251, > 100 µM (inactive); in the assay with SNB-19, > 100 µM (inactive); with MOLT-4 it was 25.7 µM (inactive); with OVCAR-3, > 100 µM (inactive). Also, the GI50 in the assay on OVCAR-8 was > 100 µM (inactive).
With `Cc1cc([N+](=O)[O-])ccc1/N=N/C(=O)NNc1ccc([N+](=O)[O-])cc1C`, the GI50 in the assay with SF-268 was 20 µM (inactive); in the assay on LOX IMVI, 15.9 µM (inactive); with UACC-257, 20 µM (inactive); with NCI-H23 it was 17.3 µM (inactive); in the assay with HCC 2998 it was 16 µM (inactive); in the assay on IGROV-1, 19.6 µM (inactive). The GI50 with UACC-62 is 13.5 µM (inactive); with SN12C, 16.7 µM (inactive); in the assay on CAKI-1, 14.8 µM (inactive); in the assay with SNB-75, 17 µM (inactive); in the assay with U-251 it was 17.5 µM (inactive); in the assay on SNB-19, 15.6 µM (inactive). Further, the GI50 in the assay on MOLT-4 is 15.5 µM (inactive); in the assay on A498, 13.6 µM (inactive); with OVCAR-3 it was 18.8 µM (inactive); with OVCAR-8 it was 14.7 µM (inactive).
Take `Cc1ccc(NC(=O)C2C(=O)N(c3ccc(C)c(C)c3)C(=O)/C2=N\NC(N)=S)cc1C` (stereo not drawn): the GI50 in the assay with SF-268 was 61.4 µM (inactive); in the assay on LOX IMVI, > 100 µM (inactive); in the assay on UACC-257, > 100 µM (inactive); with EKVX, > 100 µM (inactive); with SK-OV-3, 45 µM (inactive); in the assay with NCI-H23, > 100 µM (inactive). For the same molecule, the GI50 in the assay on SF-295 is > 100 µM (inactive); in the assay with IGROV-1 it was 96.4 µM (inactive); in the assay with UACC-62 it was 50 µM (inactive); with SN12C, 53.2 µM (inactive); in the assay on CAKI-1 it was > 100 µM (inactive); with SNB-75, > 100 µM (inactive). The GI50 in the assay on U-251 was 58.3 µM (inactive); in the assay with SNB-19, 29.6 µM (inactive); in the assay with MOLT-4, 42.6 µM (inactive); in the assay on OVCAR-3 it was > 100 µM (inactive).
For `O=C1Nc2ccc(Br)cc2/C1=N/c1ccc(Cl)cc1`, the GI50 is 14.6 µM (inactive) in the assay on SF-268; 0.521 µM (active) in the assay on LOX IMVI; 18.1 µM (inactive) in the assay on UACC-257; 1.78 µM (inactive) in the assay on COLO 205; 15.9 µM (inactive) in the assay with EKVX; 40.8 µM (inactive) in the assay with SK-OV-3. Moreover, the GI50 in the assay on NCI-H23 was 30.2 µM (inactive); in the assay with HCC 2998, 19.1 µM (inactive); in the assay with SF-295 it was 3.63 µM (inactive); in the assay on UACC-62, 0.237 µM (active); in the assay with SN12C, 13 µM (inactive); with CAKI-1, 7.1 µM (inactive). The GI50 is 23.8 µM (inactive) in the assay on U-251; 28 µM (inactive) with SNB-19; 25.6 µM (inactive) with MOLT-4; > 100 µM (inactive) in the assay on A498; 15.8 µM (inactive) in the assay on OVCAR-3; 11.7 µM (inactive) in the assay with OVCAR-8.
`NCCNCc1c2ccccc2c(CNCCN)c2ccccc12`: the GI50 in the assay on SF-268 is 7.98 µM (inactive); in the assay on UACC-257, 16.4 µM (inactive); with COLO 205, 8.17 µM (inactive); with EKVX, 20.2 µM (inactive); in the assay on NCI-H23 it was 13.1 µM (inactive); with HCC 2998 it was 9.59 µM (inactive). In addition, the GI50 in the assay on SF-295 is 17.4 µM (inactive); in the assay with IGROV-1 it was 32.3 µM (inactive); in the assay with UACC-62, 22 µM (inactive); in the assay on SN12C, 10.5 µM (inactive); in the assay on U-251 it was 22 µM (inactive); with MOLT-4 it was 3.78 µM (inactive). Besides, the GI50 in the assay on A498 was 22.3 µM (inactive); in the assay on OVCAR-3, 18.2 µM (inactive); in the assay with OVCAR-8, 13.2 µM (inactive).
